# Measured values: patent publication US20190382827A1, “USE OF MICROBIAL METABOLITES FOR TREATING DISEASES” (Yeda Research and Development Co. Ltd., priority 2015, published 2019)
# Key:
# NLRP6 inflammasome = assay: Colon explants cultured with metabolites (IL-18 ELISA, caspase-1 immunoblot, gene expression); type: cell-based, mouse; conditions: colon explants incubated for 24 hrs, compared with spermine
# Procedure: Colons were excised and washed thoroughly with PBS, homogenized in RIPA buffer containing protease inhibitors, incubated for 20 min in 4° C. and centrifuged for 20 min, 14,000 rpm at 4° C. Samples were separated on 15% acrylamide gels and transferred onto nitrocellulose membranes. Western blot analysis was performed using anti-caspase 1 p20 polyclonal antibody (Adipogen, AG-20B-0042B-C100) and Goat anti mouse antibody (Jackson ImmunoResearch, 115-035-003). Band density was calculated using ImageJ software. Colon pieces, 0.5 cm long, from the proximal colon were removed, rinsed with PBS, and weighed. The tissue explants were cultured for 24 hrs in DMEM medium containing 10% FBS, L-glutamine, penicillin, and streptomycin at 37° C. Culture medium was collected, centrifuged and the resulting supernatant stored in aliquots at -20° C. Concentrations of IL-18 in the serum or culture supernatants were measured using ELISA. […] Samples were then washed and plates were incubated with anti-mouse IL-18-biotin antibody ([…]-6 MBL) for 1 hour and HRP-Avidin (BioLegend) for 1 hour before quantification. […] For AMP induction in-vitro, 3 μg IL-18 were added to colon explants for 7 hours, then the explants were maintained in RNAlater and RNA was extracted. Tissues were preserved in RNAlater solution (Ambion) and subsequently homogenized in Tri Reagent (Fox et al.). RNA was purified according to the manufacturer's instructions. Two microgram of total RNA was used to generate cDNA (HighCapacity cDNA Reverse Transcription kit; Applied Biosystems). RealTime-PCR was performed using gene-specific primer/probe sets (Applied Biosystems) and Kapa Probe Fast qPCR kit (Kapa Biosystems) on a Viia7 instrument (Applied Biosystems). PCR conditions were 95° C. for 20 s, followed by 40 cycles of 95° C. for 3 s and 60° C. for 30 s. Data were analyzed using the deltaCt method with hprt serving as the reference housekeeping gene.
# intestinal microbiota = assay: In-vivo injection of recombinant IL-18, 16S microbiota analysis; parameters: species or system mouse
# Procedure: (§1) For IL-18 rescue experiments, recombinant IL-18 (MBL, Cat#B004-2) was injected intraperitoneally at a concentration of 1 μg per mouse for 5 days, and not injected for 2 days prior to DSS treatment. IL-18 injection to Swiss Webster germ-free mice and Nlrp6^−/− mice was performed twice a day for 3 days, while the mice were kept sterile using a cage-autonomous system (Hecht et al., 2014).
# Frozen fecal samples were processed for DNA isolation using the MoBio PowerSoil kit according to the manufacturer's instructions. For the 16S rRNA gene PCR amplification, ing of the purified fecal DNA was used for PCR amplification. Amplicons spanning the variable region 1/2 (V1/2) of the 16S rRNA gene were generated by using the following barcoded primers: Fwd 5′-XXXXXXXXAGAGTTTGATCCTGGCTCAG-3′ (SEQ ID NO: 1), Rev 5′-TGCTGCCTCCCGTAGGAGT-3′ (SEQ ID NO: 2), where X represents a barcode base. The reactions were subsequently pooled and cleaned (PCR clean kit, Promega), and the PCR products were then sequenced on an Illumina MiSeq in 500 bp paired-end method. The reads were then processed using the QIIME (Quantitative Insights Into Microbial Ecology, www(dot)qiime(dot)org) analysis pipeline as described (Caporaso et al., 2010; Elinav et al., 2011). In brief, fasta quality files and a mapping file indicating the barcode sequence corresponding to each sample were used as inputs, reads were split by samples according to the barcode, taxonomical classification was performed using the RDP-classifier, and an OTU table was created. Closed-reference OTU mapping was employed using the Greengenes database. Rarefaction was used to exclude samples with insufficient count of reads per sample. Sequences sharing 97% nucleotide sequence identity in the V2 region were binned into operational taxonomic units (97% ID OTUs). For beta-diversity, weighted unifrac measurements were plotted according to the two principal coordinates based on 1,000 reads per sample. The OTU tables used for our analyses are made accessible online.
# colonic AMPs [1] = assay: In-vivo injection of recombinant IL-18, colonic IL-18 and AMP levels; parameters: species or system mouse
# Procedure: as §1
# Concentrations of IL-18 in the serum or culture supernatants were measured using ELISA. Plates were coated over night with IL-18 (MBL, B004-2), incubated for 4 hours with supernatant or serum. Samples were then washed and plates were incubated with anti-mouse IL-18-biotin antibody (D048-6 MBL) for 1 hour and HRP-Avidin (BioLegend) for 1 hour before quantification.
# (§2) Tissues were preserved in RNAlater solution (Ambion) and subsequently homogenized in Tri Reagent (Fox et al.). RNA was purified according to the manufacturer's instructions. Two microgram of total RNA was used to generate cDNA (HighCapacity cDNA Reverse Transcription kit; Applied Biosystems). RealTime-PCR was performed using gene-specific primer/probe sets (Applied Biosystems) and Kapa Probe Fast qPCR kit (Kapa Biosystems) on a Viia7 instrument (Applied Biosystems). PCR conditions were 95° C. for 20 s, followed by 40 cycles of 95° C. for 3 s and 60° C. for 30 s. Data were analyzed using the deltaCt method with hprt serving as the reference housekeeping gene.
# colonic AMPs [2] = assay: IL-18 added to germ-free colon explants, AMP induction in-vitro; type: cell-based, mouse; conditions: GF colon explants, sterile conditions
# Procedure: Colon explants were incubated with 70 mM of taurine (Sigma Aldrich, T0625), histamine (Sigma Aldrich, H7125) or spermine (Sigma Aldrich, S3256) for 24 hours. For AMP induction in-vitro, 3 μg IL-18 were added to colon explants for 7 hours, then the explants were maintained in RNAlater and RNA was extracted.
# as §2
# DSS colitis = assay: DSS colitis; type: in vivo, mouse; conditions: Asc-/- mice, IL-18 i.p. prior to induction of DSS colitis
# Procedure: as §1
# Mice were treated with 1.5% (w/v) DSS (M.W.=36,000-50,000 Da; MP Biomedicals) in their drinking water for 7 days followed by regular access to water. The animals were weighed daily and monitored for signs of distress as well as rectal bleeding.
# For DSS rescue experiments, mice were receiving taurine in the drinking water prior to DSS treatment in a concentration of 100 mg/ml for 14 days.
# Colonoscopy was performed using a high-resolution mouse video endoscopic system (Carl Storz, Tuttlingen, Germany). The severity of colitis was blindly scored using MEICS (Murine Endoscopic Index of Colitis Severity), which is based on five parameters: granularity of mucosal surface; vascular pattern; translucency of the colon mucosa; visible fibrin; and stool consistency (Becker et al., 2006).
# On the day of the assay, 4 kDa fluorescein isothiocyanate (FITC)-dextran was dissolved in phosphate buffered saline (PBS) to a concentration of 80 mg ml^−1. Mice were fasted for 4 hours prior to gavage with 150 μl dextran. Mice were anesthetized 3 hours following gavage and blood was collected, centrifuged at 1,000×g for 12 min at 4° C. Serum was collected and fluorescence was quantified at an excitation wavelength of 485 nm and 535 nm emission wavelength.
# DNA was extracted from liver samples (using MoBio PowerSoil kit). DNA concentration was calculated using a standard curve of known DNA concentrations from E. coli K12. 16S qPCR using primers identifying different regions of the V6 16S gene was performed using Kappa SYBR fast mix.
# Absolute number of bacteria in the samples was then approximated as DNA amount in a sample/DNA molecule mass of bacteria.
# microbiota = assay: Ang4 in-vitro culture of stool microbiota under anaerobic conditions; parameters: species or system mouse
# Procedure: Murine Ang4 was expressed in E. coli and purified as previously described (Holloway et al, 2001). Stool pellets were collected and cultured in anaerobic conditions for 8 hours with rAng4, centrifuged and further analyzed using 16S rRNA sequencing.
# Frozen fecal samples were processed for DNA isolation using the MoBio PowerSoil kit according to the manufacturer's instructions. For the 16S rRNA gene PCR amplification, ing of the purified fecal DNA was used for PCR amplification. […] The reads were then processed using the QIIME (Quantitative Insights Into Microbial Ecology, www(dot)qiime(dot)org) analysis pipeline as described (Caporaso et al., 2010; Elinav et al., 2011). In brief, fasta quality files and a mapping file indicating the barcode sequence corresponding to each sample were used as inputs, reads were split by samples according to the barcode, taxonomical classification was performed using the RDP-classifier, and an OTU table was created. […] Rarefaction was used to exclude samples with insufficient count of reads per sample. […] For beta-diversity, weighted unifrac measurements were plotted according to the two principal coordinates based on 1,000 reads per sample. […]
# [3] = GF Nlrp6-/- mice, sterile administration
# [4] = mice lacking NLRP6, ASC, or caspase-1/11
molecule,measurement,setting,value
NCCCCN [putrescine],IL-18 in colon explants,NLRP6 inflammasome,equally suppressed
"IL-18: recombinant IL-18 (MBL, Cat#B004-2)",microbiota configuration,intestinal microbiota; Asc- and Caspase-1/11-deficient mice,significant configuration changes
same,"aberrant microbiota composition, beta- and alpha-diversity",intestinal microbiota; Caspase-1/11-/- mice,corrected
same,abundance of multiple commensal bacteria,"intestinal microbiota; Caspase-1/11-/- mice, relative to WT levels",restored
same,microbial community composition,intestinal microbiota; Nlrp6-/- mice,marked compositional changes
same,microbiota composition,intestinal microbiota; WT mice,not affected
same,dominant transmission of the dysbiotic microbiota configuration,intestinal microbiota; WT recipients cohoused with inflammasome-deficient mice,prevented
same,UniFrac distance to cohousing partners,intestinal microbiota; grWT(Asc-/-) mice injected with IL-18,increased
same,Ang4,colonic AMPs [1]; [3],induced
same,defect in secretion of mature IL-18 protein,colonic AMPs [1]; [3],rescued this defect
same,levels of colonic AMPs,"colonic AMPs [1]; WT GF mice, in-vivo administration",restored normal levels
same,AMP levels,colonic AMPs [1]; [4],restored
same,IL-18 levels,colonic AMPs [1]; [4],restored
same,levels of colonic AMPs,colonic AMPs [2],restored normal levels
same,colitis severity,DSS colitis,diminished
same,colonoscopy score,DSS colitis,improved
same,weight loss,DSS colitis,reduced
"Ang4: Murine Ang4 expressed in E. coli and purified; antimicrobial peptide (protein, UniProt Q3TMQ6 25-144, looked up) Angiogenin-4: QNERYEKFLRQHYDAKPNGRDDRYCESMMKERKLTSPCKDVNTFIHGTKKNIRAICGKKGSPYGENFRISNSPFQITTCTHSGASPRPPCGYRAFKDFRYIVIACEDGWPVHFDESFISP",beta- and alpha-diversity,microbiota; anaerobic in-vitro microbiome cultures of Asc-/- mice,partially restored
same,impact on overall community composition,microbiota; microbiota from Asc-/- mice compared with WT mice,greater
